{
  "source": "patent US20040235922A1",
  "about": "“Compositions and methods for inducing adipose tissue cell death” (priority 2003, published 2004)",
  "key": {"male and female ICR mice": {"test_system": "male and female ICR mice", "assay": "21 day oral (diet) treatment of mice: selected tissue weights, fat pads, BAT, muscle, organs (Example 1)", "assay_type": "in vivo", "details": "21 days; for Brown adipose tissue (BAT) mass compared to control/other treatments: 200 ppm clenbuterol in diet; for Brown adipose tissue (BAT) mass compared to control/other treatments / Rp and Epi/Par fat pad weights compared to control: p<0.05; for Rp and Epi/Par fat pad weights compared to control: 200 ppm clenbuterol, 800 ppm ractopamine in diet", "experimental": "(§1) The effects of clenbuterol, a β2-AR agonist, and ractopamine, a β1/β2-AR agonist, on growth, adiposity and adipose tissue apoptosis in male and female mice have been tested by feeding diets containing control, 200 ppm clenbuterol, or 200 or 800 ppm ractopamine. Food intake (FI) was measured daily; body weight (BW) and temperatures (BT) were measured on days 0, 3, 7, 10, 14, 17, and 20. On day 21 mice were sacrificed, body composition was determined using PIXImus densitometry, and muscle and adipose tissues were collected. There were no treatment effects on BT, FI, BW, feed efficiency or body composition. Retroperitoneal (Rp) and epididymal/parametrial (Epi/Par) fat pad masses were reduced in both 800 ppm ractopamine (40±3 and 207±20 mg, respectively) and clenbuterol (35±7 and 211±22 mg) treated mice compared to control (66±8 and 319±30 mg, p<0.05). Brown adipose tissue (BAT) mass was greater (p<0.05) in clenbuterol treated mice compared to other treatments. Adipose tissue apoptosis (% DNA fragmentation) was increased in Epi/Par fat pads in clenbuterol (5.2+1.1%) and 800 ppm ractopamine (4.1±0.8%) treated mice compared to control (1.7+0.4%, p<0.05).\n(§2) Animals: Five week old male (n=20) and female (n=20) ICR mice (Harlan Research Laboratories, Indianapolis, Ind.) were allowed to acclimate for one week prior to the experiment start date. Animals were housed singly in suspended wire cages and were provided ground rodent chow (ProLab® RMH 2500; Purina Mills, St. Louis, Mo.) and water ad libitum. Ambient room temperature was maintained and the light/dark cycle was 0600/1800 hours, respectively. Animals were cared for in accordance with the Guide for the Care and Use of Laboratory Animals (Institute of Laboratory Animal Resources Commission on Life Sciences National Research Council. Guide for the Care and Use of Laboratory Animals. National Academy of Sciences, 1996). Prior to the start of the study, animals were briefly anesthetized with isofluorane and an IPPT-200 transponder (programmable ID and temperature, BMDS, Seaford, Del.) was implanted subcutaneously between the scapulae.\nMaterials: Test articles included clenbuterol (Sigma Chemical Company, St. Louis, Mo., item # C5423) and ractopamine hydrochloride—Paylean® 9 (Elanco Animal Health, Indianapolis, Ind.). Clenbuterol is available as a pure product, and ractopamine is readily available as a type A medicated article. Paylean® 9 contains about 20 g ractopamine hydrochloride per kilogram in a ground corncob base. In order to achieve doses of 200 and 800 ppm it was necessary to add about […] of product per kilogram of diet. Control and clenbuterol diets were prepared with about 80 g of alphacel, which is a diluent used to mimic the effect of the corncob in the ractopamine product. The dose of clenbuterol used in this experiment was similar to those used in previous experiments with mice (Agbenyega E T, and Wareham A C. Effect of clenbuterol on skeletal muscle atrophy in mice induced by the glucocorticoid dexamethasone. Comp Biochem Physiol Comp Physiol 1992;102:141-145, Rothwell N. J., and Stock M J. Modification of body composition by clenbuterol in normal and dystrophic (mdx) mice. Biosci Rep 1985;5:755-760, Hyltander A, Svaninger G, and Lundholm K. The effect of clenbuterol on body composition in spontaneously eating tumour-bearing mice. Biosci Rep 1993;13:325-331, Hayes A, and Williams DA. Long-term clenbuterol administration alters the isometric contractile properties of skeletal muscle from normal and dystrophin-deficient mdx mice. Clin Exp Pharmacol Physiol 1994;21:757-765, Dupont-Versteegden EE. Exercise and clenbuterol as strategies to decrease the progression of muscular dystrophy in mdx mice. J Appl Physiol 1996;80:734-741). […]"}, "[1]": {"assay": "21 day oral (diet) treatment of mice: body weight, food intake, feed efficiency, body temperature, body composition by PIXImus densitometry (Example 1)", "assay_type": "in vivo", "details": "21 days, ICR mice", "experimental": "as §1, §2\nMaterials: Test articles included clenbuterol (Sigma Chemical Company, St. Louis, Mo., item # C5423) and ractopamine hydrochloride—Paylean® 9 (Elanco Animal Health, Indianapolis, Ind.). Clenbuterol is available as a pure product, and ractopamine is readily available as a type A medicated article. Paylean® 9 contains about 20 g ractopamine hydrochloride per kilogram in a ground corncob base. In order to achieve doses of 200 and 800 ppm it was necessary to add about […] of product per kilogram of diet. Control and clenbuterol diets were prepared with about 80 g of alphacel, which is a diluent used to mimic the effect of the corncob in the ractopamine product. The dose of clenbuterol used in this experiment was similar to those used in previous experiments with mice (Agbenyega E T, and Wareham A C. Effect of clenbuterol on skeletal muscle atrophy in mice induced by the glucocorticoid dexamethasone. Comp Biochem Physiol Comp Physiol 1992;102:141-145, Rothwell N. J., and Stock M J. Modification of body composition by clenbuterol in normal and dystrophic (mdx) mice. Biosci Rep 1985;5:755-760, Hyltander A, Svaninger G, and Lundholm K. The effect of clenbuterol on body composition in spontaneously eating tumour-bearing mice. Biosci Rep 1993;13:325-331, Hayes A, and Williams DA. Long-term clenbuterol administration alters the isometric contractile properties of skeletal muscle from normal and dystrophin-deficient mdx mice. Clin Exp Pharmacol Physiol 1994;21:757-765, Dupont-Versteegden EE. Exercise and clenbuterol as strategies to decrease the progression of muscular dystrophy in mdx mice. J Appl Physiol 1996;80:734-741).\nDaily Observations: Food intake was measured daily, while body weight and body temperatures were measured on days 0, 3, 7, 10, 14, 17, and 20 at approximately the same time of day (1300 hours) during the treatment period. […]"}, "[2]": {"details": "200 ppm in diet, male and female mice"}},
  "note": "“Also recorded” adds a separate entry of the source. Marks after values point to notes of the source that are not given here.",
  "data": [
    {"smiles": "CC(C)(C)NCC(O)c1cc(Cl)c(N)c(Cl)c1", "note": "(stereo not shown) [Clenbuterol, clenbuterol]", "values": [
      {"measurement": "Brown adipose tissue (BAT) mass compared to control/other treatments", "setting": "male and female ICR mice", "result": "increased BAT mass"},
      {"measurement": "Brown adipose tissue (BAT) mass compared to control/other treatments", "setting": "male and female ICR mice; listed as clenbuterol", "result": "greater; also recorded: significantly increased"},
      {"measurement": "Rp and Epi/Par fat pad weights compared to control", "setting": "male and female ICR mice", "result": "decreased mass of Rp and Epi/Par fat pads in females only"},
      {"measurement": "Rp and Epi/Par fat pad weights compared to control", "setting": "male and female ICR mice; listed as clenbuterol", "result": "reduced"},
      {"measurement": "BAT tissue weight, mean", "setting": "male and female ICR mice; [2]", "result": ".124"},
      {"measurement": "Biceps tissue weight, mean", "setting": "male and female ICR mice; [2]", "result": ".145"},
      {"measurement": "Epi/Par tissue weight, mean", "setting": "male and female ICR mice; [2]", "result": ".211"},
      {"measurement": "Heart tissue weight, mean", "setting": "male and female ICR mice; [2]", "result": ".164"},
      {"measurement": "Ing tissue weight, mean", "setting": "male and female ICR mice; [2]", "result": ".150"},
      {"measurement": "Kidney tissue weight, mean", "setting": "male and female ICR mice; [2]", "result": ".582"},
      {"measurement": "Liver tissue weight, mean", "setting": "male and female ICR mice; [2]", "result": 2.14},
      {"measurement": "Rp tissue weight, mean", "setting": "male and female ICR mice; [2]", "result": ".035"},
      {"measurement": "Retroperitoneal (Rp) fat pad mass", "setting": "male and female ICR mice; 200 ppm in diet, mice, control 66±8 mg", "result": "35 ± 7", "unit": "mg"},
      {"measurement": "Epididymal/parametrial (Epi/Par) fat pad mass", "setting": "male and female ICR mice; 200 ppm in diet, mice, control 319±30 mg", "result": "211 ± 22", "unit": "mg"},
      {"measurement": "Muscle mass / muscle weight, body protein or fat content", "setting": "male and female ICR mice; diet, ICR mice", "result": "no effect"},
      {"measurement": "Par weight, mean", "setting": "male and female ICR mice; females, 200 ppm in diet", "result": ".18^b"},
      {"measurement": "Epi weight, mean", "setting": "male and female ICR mice; males, 200 ppm in diet", "result": ".24^ab"},
      {"measurement": "Cumulative Feed Intake", "setting": "[1]; 200 ppm in diet", "result": 6.10, "unit": "g"},
      {"measurement": "Densitometry Bone Mineral Content", "setting": "[1]; 200 ppm in diet", "result": 0.65, "unit": "g"},
      {"measurement": "Densitometry Fat", "setting": "[1]; 200 ppm in diet", "result": 2.81, "unit": "g"},
      {"measurement": "Densitometry Lean", "setting": "[1]; 200 ppm in diet", "result": 26.80, "unit": "g"},
      {"measurement": "Feed Efficiency", "setting": "[1]; 200 ppm in diet", "result": 14.4},
      {"measurement": "Final Body Weight", "setting": "[1]; 200 ppm in diet", "result": 32.1, "unit": "g"},
      {"measurement": "Weight Gain", "setting": "[1]; 200 ppm in diet", "result": 8.90, "unit": "g"},
      {"measurement": "Effect on body temperature, food intake, body weight, feed efficiency, body composition", "setting": "[1]; diet", "result": "not significantly affected; also recorded: Neither clenbuterol nor ractopamine affected"}
    ]}
  ]
}
